Results reported in patent publication US20080141384A1, “Composition For Screening Anti-Hypertension Drug Comprising Mammal Tctp Gene or Its Protein Product, and Method For Screening Anti-Hypertension Drug Using Said Composition” (EWHA UNIVERSITY INDUSTRY COLLABORATION FOUNDATION, priority 2003, published 2008).

How the values were obtained:
Na/K APTase pump [1] = test: Na/K APTase pump activity by 86Rb+ uptake in RBL-2H3 cells; assay type: cell-based; conditions: 10-20 μg/ml TCTP added, 86Rb+ tracer, versus control without TCTP, FIG. 1a
Description: The Na/K APTase pump inhibitory activity of the TCTP protein contained in the inventive composition was examined. As it was already known that TCTP interacts with the Na/K APTase pump, a test was performed to examine if the interaction has any effect on the activity of the Na/K APTase pump inhibitory activity.
RBL-2H3 cells were cultured at a suitable density and washed three times with Krebs-Ringer buffer (KRP, 140 mM NaCl, 5 mM KCl, 10 mM Na2HPO4, 1 mM MgSO4, 1.4 mM CaCl2, 2.5 mM glucose, pH 7.4). Subsequently, the cells were incubated at 37° C. for 15 minutes, and added with 0.1% BSA-containing KRP buffer containing 1 mM ouabain.
To measure the transport of K^+ ions caused by the Na/K APTase pump, cultivation was performed for 5-10 minutes using an ^86Rb^+([…], NEN) tracer having high sensitivity to ouabain, and 10-20 μg/ml TCTP was added. Also, a control group to which TCTP had not been added was prepared.

Na/K APTase pump [2] = test: FACS analysis of intracellular Na+ using a Na-sensitive dye; assay type: cell-based; conditions: FACS with Na-sensitive dye, versus control group (Mock); FIG. 1b
Description: To confirm the above results again, FACS analysis was performed using a Na-sensitive dye.

Na/K-ATPase pump = test: cell-based or functional assay

activity of the Na/K APTase pump (ouabain-sensitive 86Rb+ uptake in RBL-2H3 cells, 10-20 ug/ml TCTP against a control without TCTP) (Na/K-ATPase pump) | Substance | activity of the Na/K APTase pump (reduced to) (Na/K APTase pump [1]) | intracellular Na+ concentration (Na/K APTase pump [2])
– | TCTP: Translationally controlled tumor protein (IgE-dependent histamine-releasing factor), amino acid sequence of SEQ ID NO: 2; cytoplasmic inhibitor of the Na/K-ATPase pump | 53.5% | increased the intracellular Na^+ concentration
53.5% | Translationally controlled tumor protein (TCTP) (from UniProt P13693 1-172) | – | –
